Assay results: patent US20190071571A1, “COLORING COMPOSITION, DICHROIC DYE COMPOUND, LIGHT ABSORPTION ANISOTROPIC FILM, LAMINATE, AND IMAGE DISPLAY DEVICE” (FUJIFILM Corporation, priority 2016, published 2019)

Test: Solubility of dichroic dye compound in cyclopentanone (absorbance method)
Format: physicochemical
Conditions: for Solubility (evaluation grade) / Solubility (wt %): in cyclopentanone; for solubility (in words): solubility to solvent, comparison between examples
Protocol: The solubilities of the dichroic dye compounds D1 and D4 to D24 used in the examples and the comparative examples were measured as follows.
0.1 g of each dichroic dye compound was added to 2 g of cyclopentanone, and dissolved with ultrasonic waves. Then, 0.2 g of the solution portion was weighed and diluted with 45 g of cyclopentanone. The absorption spectrum of the cyclopentanone solution was measured to obtain an absorbance A (for solubility measurement).
Separately, 0.1 mg of each dichroic dye compound was completely dissolved in 100 g of cyclopentanone, and the absorption spectrum was measured to obtain an absorbance B (having a known concentration).
From data of the obtained two absorbances, the solubility was calculated by the following formula.
The evaluation standards are as follows.
A: The solubility is 2.5 mass % or greater.
B: The solubility is 1.0 mass % or greater and ess than 2.5 mass %.
C: The solubility is less than 1.0 mass %.

Row | Structure (SMILES) | Solubility (evaluation grade) | Solubility (wt %) | solubility (in words)
1 | C=CC(=O)OCCCCOc1ccc(/N=N/c2ccc(/N=N/c3ccc(/N=N/c4ccc(OCCCCOC(=O)C=C)cc4)cc3C)cc2)cc1 [D1] | A (The solubility is 2.5 mass % or greater.) | 4.5 wt % | more excellent solubility
2 | C=CC(=O)OCCCCOc1ccc(/N=N/c2ccc(/N=N/c3ccc(OCCCCOC(=O)C=C)cc3)cc2)cc1 [D4] | A (The solubility is 2.5 mass % or greater.) | 5.7 wt % | 
3 | C=CC(=O)OCCCCOc1ccc(/N=N/c2ccc(/N=N/c3ccc(OCCCCOC(=O)C=C)c(C)c3)cc2)cc1 [D5] | A (The solubility is 2.5 mass % or greater.) | 6.8 wt % | 
4 | C=CC(=O)OCCCCOc1ccc(/N=N/c2ccc(/N=N/c3ccc(OCCCCOC(=O)C=C)cc3C)cc2)cc1 [D6] | A (The solubility is 2.5 mass % or greater.) | 18 wt % | more excellent solubility
5 | C=CC(=O)OCCCCOc1ccc(/N=N/c2ccc(/N=N/c3ccc(OCCCCOC(=O)C=C)c(C(F)(F)F)c3)cc2)cc1 [D7] | A (The solubility is 2.5 mass % or greater.) | 42 wt % | more excellent solubility
6 | C=CC(=O)OCCCCOc1ccc(/N=N/c2ccc(/N=N/c3ccc(/N=N/c4ccc(OCCCCOC(=O)C=C)cc4)cc3OCCOCCOCCOC)cc2)cc1 [D8] | A (The solubility is 2.5 mass % or greater.) | 4.8 wt % | more excellent solubility
7 | C=CC(=O)OCCOc1ccc(/N=N/c2ccc(/N=N/c3ccc(/N=N/c4ccc(OCCOC(=O)C=C)cc4)cc3C)cc2)cc1 [D9] | A (The solubility is 2.5 mass % or greater.) | 4.3 wt % | 
8 | C=CC(=O)OCCCCOc1ccc(/N=N/c2ccc(/N=N/c3ccc(/N=N/c4ccc(OCCCCCCC)cc4)cc3)c(C)c2)cc1 [D10] | A (The solubility is 2.5 mass % or greater.) | 2.8 wt % | 
9 | Cc1cc(/N=N/c2ccc(OCCCCOCC3(C)COC3)cc2)ccc1/N=N/c1ccc(/N=N/c2ccc(OCCCCOCC3(C)COC3)cc2)cc1 [D11] | A (The solubility is 2.5 mass % or greater.) | 3.3 wt % | 
10 | C=CC(=O)OCCCCOc1ccc(/N=N/c2ccc(/N=N/c3ccc(/N=N/c4ccc(OCCCCOC(=O)C=C)cc4)cc3)cc2)cc1 [D12, reference compound] | C (The solubility is less than 1.0 mass %.) | 0.8 wt % | the solubility to a solvent deteriorates
11 | C=CC(=O)OCCCCOc1ccc(/N=N/c2ccc(/N=N/c3ccc(/N=N/c4ccc(OCCCCOC(=O)C=C)cc4)c4ccccc34)cc2)cc1 [D13, reference compound] | B (The solubility is 1.0 mass % or greater and ess than 2.5 mass %.) | 1.5 wt % | 
12 | C=CC(=O)OCCCCOc1ccc(N=Nc2ccc(N=Nc3ccc(N=Nc4ccc(OCCCCOC(=O)C=C)cc4)c(OC)c3)c(OC)c2)cc1 [D14] | A (The solubility is 2.5 mass % or greater.) | 3.1 wt % | 
13 | C=CC(=O)OCCCCOc1ccc(N=Nc2ccc(N=Nc3ccc(N=Nc4ccc(OCCCCOC(=O)C=C)c(OC)c4)cc3C)cc2)cc1OC [D15] | A (The solubility is 2.5 mass % or greater.) | 4.3 wt % | 
14 | C=CC(=O)OCCCCOc1ccc(N=Nc2ccc(N=Nc3ccc(N=Nc4ccc(OCCCCOC(=O)C=C)cc4OC)cc3C)cc2)c(OC)c1 [D16] | A (The solubility is 2.5 mass % or greater.) | 5.0 wt % | more excellent solubility
15 | C=CC(=O)OCCCCOc1ccc(N=Nc2ccc(N=Nc3ccc(N=Nc4ccc(OCCCCOC(=O)C=C)cc4)c(C)c3)c(OC)c2)cc1 [D17] | A (The solubility is 2.5 mass % or greater.) | 3.2 wt % | 
16 | C=CC(=O)OCCCCOc1ccc(N=Nc2ccc(N=Nc3ccc(N=Nc4ccc(N=Nc5ccc(OCCCCOC(=O)C=C)cc5)c(OC)c4)c(OC)c3)cc2)cc1 [D18] | B (The solubility is 1.0 mass % or greater and ess than 2.5 mass %.) | 2.1 wt % | 
17 | C=CC(=O)OCCCCOc1ccc(N=Nc2ccc(N=Nc3ccc(N=Nc4ccc(OCCCCOC(=O)C=C)c(C(F)(F)F)c4)cc3)cc2)cc1 [D19] | A (The solubility is 2.5 mass % or greater.) | >5 wt % | 
18 | C=CC(=O)OCCCCOc1ccc(N=Nc2ccc(N=Nc3ccc(N=Nc4ccc(OCCCCOC(=O)C=C)cc4OCCOC)cc3C)cc2)c(OCCOC)c1 [D20] | A (The solubility is 2.5 mass % or greater.) | >5 wt % | 
19 | C=CC(=O)OCCCCOc1ccc(N=Nc2ccc(N=Nc3ccc(N=Nc4ccc(OCCCCOC(=O)C=C)cc4O)cc3)c(C)c2)cc1 [D21] | B (The solubility is 1.0 mass % or greater and ess than 2.5 mass %.) | 1.5 wt % | 
20 | C=CC(=O)OCCCCOc1ccc(N=Nc2ccc(N=Nc3ccc(N=Nc4ccc(N=Nc5ccc(OCCCCOC(=O)C=C)cc5)cc4)cc3)cc2)cc1 [D22, reference compound] | C (The solubility is less than 1.0 mass %.) | 0.3 wt % | 
21 | C=CC(=O)OCCCCOc1ccc(N=Nc2ccc(N=Nc3ccc(N=Nc4ccc(N=Nc5ccc(N=Nc6ccc(OCCCCOC(=O)C=C)c(C(F)(F)F)c6)c(C)c5)cc4)c(C)c3)cc2)cc1C(F)(F)F [D23] | B (The solubility is 1.0 mass % or greater and ess than 2.5 mass %.) | 1.2 wt % | 
22 | CCCCc1ccc(N=Nc2ccc(N=Nc3c(C)cc(N=Nc4cc(C)c(N=Nc5ccc(N=Nc6ccc(CCCC)cc6)cc5)c(C)c4)cc3C)cc2)cc1 [D24, reference compound] | C (The solubility is less than 1.0 mass %.) | <0.1 wt % | 
